From PMC10914731, “Homo-BacPROTAC-induced degradation of ClpC1 as a strategy against drug-resistant mycobacteria” (Nature Communications, 2024)
“And” between values parts separate entries of the source, which are not always exact repeats. Equal entries are not always repeated. Where two headings read alike, the source gives them in different places.

Experiments:
[1] = system: Msm #607; experiment: Minimum bactericidal concentration (MBC), Msm #607; format: cell-based, Mycobacterium smegmatis; settings: for MBC: Mycolicibacterium smegmatis
[2] = system: Klebsiella pneumoniae; experiment: MIC ESKAPES panel, Klebsiella pneumoniae; format: cell-based
Description: (§1) Minimum inhibitory concentration (MIC) against ESKAPES panel of Gram positive and Gram negative pathogens (Enterococcus faecium, Staphylococcus aureus, Klebsiella pneumoniae, Acinetobacter baumannii, Pseudomonas aeruginosa, Enterobacter cloacae and Salmonella typhimurium [ESKAPES panel]) were determined at the FNDR by the standard broth dilution method [CLSI, M100]. […] Mueller Hinton broth (MHB) medium was used to grow ESKAPES panel strains. The individual cultures were added as 200 μL (inoculum of 3–7 × 10^5 cfu/ml) to the respective assay plates in each well to all columns, except the media control (200 μL of medium). […] The assay plates were incubated at 37 °C, and the results were noted on the 2nd day as turbidometric readout. The clear wells indicated inhibition of growth, while the turbid wells indicated uninhibited growth.

[3] = system: Mtb # 8673; experiment: microbe, parasite or virus in culture; format: cell-based
[4] = system: Pseudomonas aeruginosa; experiment: MIC ESKAPES panel, Pseudomonas aeruginosa; format: cell-based
Description: as §1

[5] = system: Mtb H37Rv in THP-1 macrophages; experiment: Intracellular MIC assay in THP-1 macrophages; format: cell-based, Mycobacterium tuberculosis; parameters: Emax: unit not given here
[6] = in vivo; format: in vivo, BALB/cAnNCrl mice
Description: The in-life experimental procedures were conducted in strict compliance with German and European animal welfare legislation in an AAALAC-accredited facility. Male BALB/cAnNCrl mice (Charles River Laboratories Research Models and Services, 97633 Sulzfeld, Germany) were used. Animals were 9 weeks old at dosing with a body weight of 21.6–24.3 g. Animals were delivered free of pathogens according to FELASA recommendations with a health certificate provided by the breeder. Upon receipt, the state of health and sex was checked. Animals acclimatized for at least 5 days before the commencement of the in-life phase. During acclimation, animals were group-housed in individually ventilated cages, on birch wood granulate bedding with species-specific enrichment (nesting material, mouse igloo, gnawing wood). During experimental conduct, animals were housed in conventional cages with elevated grid floors. Grid floor was used to avoid contamination with test item material excreted via urine and feces and subsequent reuptake during fur grooming. No bedding and enrichment were provided except a cage divider, which can be used as a shelter. Animals always had unlimited access to food and water and received a pelleted, total pathogen-free maintenance diet and tap drinking water, sterilized by filter.
In case of incomplete dissolution, the formulation was filtered at 40 °C (non-pyrogenic sterile-R filter, 0.2 µm). All formulations were stirred warm until administration. Actual test item content was determined bioanalytically.
Male BALB/cAnNCrl mice (n = 3 per test item and administration route) received a bolus dose of the formulated test item(s) (1 mg/kg iv, 30 mg/kg po) at t = 0 h, and whole blood samples were collected subsequently (35 µl at 0.1 (iv) / 0.25 (po), 0.5, 1, 2, 4, 6 h; 600 µl at sacrifice after 24 h). Animals were euthanized by exsanguination in deep isoflurane anesthesia. Whole blood samples were immediately stored on ice at about 4 °C. Plasma was separated by centrifugation at approximately 10,000 × g for 5 m at +4 °C. Centrifugation of each blood sample was started within 10 m after collection. A single aliquot of at least 15 µL of plasma was prepared and immediately stored at −20 ± 5 °C.
Sample proteins were precipitated with ACN (1 + 12, v/v) containing internal standard, and supernatants analyzed by quantitative UPLC-MS/MS: Phenomenex Luna Omega C18, 2.1 × 50 mm, 1.6 µm, 40 °C, gradient between 10% - 90% ACN with 0.1% formic acid. LogD determination: Lipophilicity of the test items, expressed as chromLogD7.5, was assessed by measuring their chromatographic retention times on C18-material. The chromatographic retention versus logD7.5 values of a series of thirteen n-alkan-2-ones (2-butanone – 2-hexadecanone) served as lipophilicity calibration.

[7] = system: Acinetobacter baumannii; experiment: MIC ESKAPES panel, Acinetobacter baumannii; format: cell-based
Description: as §1

[8] = format: in vitro ADME, Rat
Procedure, shortened: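 Compound (1 µmol/l) was incubated at 37 °C with 0.5 mg/ml liver microsomes in 100 mM Tris-HCl pH 7.5, 6.5 mM MgCl2 and 1 mM NADPH. Reactions were quenched with acetonitrile at several time points and parent remaining quantified by HPLC-MS/MS; first-order half-lives were converted to clearance as %Qh via the well-stirred model.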

[9] = ATCC607, read-out: MBC (from Set 3) Msm ATCC 607
[10] = Gram-Negative Bacteria, replicates 1-3, listed as 8 (UdSBI-0545)
[11] = Klebsiella pneumoniae, Gram negative, n = 3 well replicates
[12] = Klebsiella pneumoniae, Gram-Negative Bacteria, replicates 1-3
[13] = Mycobacterium tuberculosis, mean, n = 2 well replicates
[14] = Mycobacterium tuberculosis, single well replicates
[15] = single well replicates, listed as 8 (UdSBAI-0545)
[16] = Pseudomonas aeruginosa, Gram negative, n = 3 well replicates
[17] = Pseudomonas aeruginosa, Gram-Negative Bacteria, replicates 1-3
[18] = dose-normalized, mice, 1 mg kg-1 iv bolus
[19] = iv bolus, individual animals 1-3, BLOQ <1.00 nmol/l, listed as 8 (UdSBI-0545)
[20] = iv bolus, individual animals 1-3, listed as 8 (UdSBI-0545)
[21] = iv bolus, mice, Mean, BLOQ <1.00 nmol/l
[22] = Gram negative, n = 3 well replicates, read-out: MIC Acinetobacter baumanii
[23] = Gram-Negative Bacteria, replicates 1-3, read-out: MIC Acinetobacter baumannii
[24] = Gram-Negative Bacteria, replicates 1-3, listed as 12 (UdSBI-4377)
[25] = single well replicates, listed as 12 (UdSBI-4377)
[26] = male, BALB/cAnNCrl, mouse, in vivo, iv, 1 mg/kg

COC(c1ccccc1)C1NC(=O)C(C)NC(=O)C(CC(C)CO)N(C)C(=O)C(Cc2cn(Cc3cn(CCOCCOCCOCCOCCn4cc(Cn5cc(CC6NC(=O)C(C(C)C)NC(=O)C(CC(C)C)N(C)C(=O)C(C(C)C)NC(=O)C(C(OC)c7ccccc7)NC(=O)C(C)NC(=O)C(CC(C)CO)N(C)C6=O)c6ccccc65)nn4)nn3)c3ccccc23)NC(=O)C(C(C)C)NC(=O)C(CC(C)C)N(C)C(=O)C(C(C)C)NC1=O (stereo not shown) [Compound 8]
colony growth after replating (MBC assay) ([1]; Msm #607, up to 50 µM, result in words): growth of colonies could be observed across all tested concentrations | MBC [1, 9]: > 109 µg/mL and > 50 µM | MBC ([1]; read-out: MBC Msm #607, individual example): > 50 µM and > 108 µg/mL | MIC [2, 10]: >50 µM | MIC [2, 11]: > 50 µM | MIC [2, 12]: > 109 µg/mL | MIC [3, 13]: < 0.1 µM and < 0.2 µg/mL | MIC [3, 14]: < 0.1 µM and < 0.21 µg/mL | MIC [3, 15]: <0.1 µM | MIC Mtb # 8673 [3, 15]: <0.21 µg/mL | MIC [4, 10]: >50 µM | MIC [4, 16]: > 50 µM | MIC [4, 17]: > 109 µg/mL | Emax [5]: 1.27 | intracellular viable mycobacteria ([5]; 0.19µM, Day 4, well replicates): 5.45 log10 cfu/ml | intracellular viable mycobacteria ([5]; 0.19µM, Day 7, well replicates): 5.56 log10 cfu/ml | intracellular viable mycobacteria ([5]; 0.781µM, Day 4, well replicates): 4.88 log10 cfu/ml | intracellular viable mycobacteria ([5]; 0.781µM, Day 7, well replicates): 4.81 log10 cfu/ml | intracellular viable mycobacteria ([5]; 3.125µM, Day 4, well replicates): 4.56 log10 cfu/ml | intracellular viable mycobacteria ([5]; 3.125µM, Day 7, well replicates): 4.31 log10 cfu/ml and 4.3 log10 cfu/ml | intracellular viable mycobacteria ([5]; 50µM, Day 4, well replicates): 4.3 log10 cfu/ml | intracellular viable mycobacteria ([5]; 50µM, Day 7, well replicates): 3.92 log10 cfu/ml and 3.9 log10 cfu/ml | AUC [6, 18]: 8580 h nM/(nmol kg-1) | Cmax [6, 18]: 6710 nM/(nmol kg-1) | Plasma concentration 6 h [6, 19]: 90.8 nmol/L and 118 nmol/L and 77.8 nmol/L | Plasma concentration 24 h [6, 19]: 14.8 nmol/L and 18.2 nmol/L and 13.3 nmol/L | AUC0-inf/Dose [6, 20]: 7860 h nM/(nmol kg-1) and 10400 h nM/(nmol kg-1) and 8420 h nM/(nmol kg-1) | AUC0-t/Dose [6, 20]: 7540 h nM/(nmol kg-1) and 10000 h nM/(nmol kg-1) and 8140 h nM/(nmol kg-1) | CL [6, 20]: 2.1 mL/min/kg and 1.6 mL/min/kg and 2.0 mL/min/kg | CL PL QH [6, 20]: 2.4% and 1.8% and 2.2% | Cmax/Dose [6, 20]: 5300 nM/(nmol kg-1) and 7400 nM/(nmol kg-1) and 7420 nM/(nmol kg-1) | MRT [6, 20]: 4.5 h and 4.3 h and 3.8 h | Plasma concentration 0.1 h [6, 20]: 2.44 µM and 3.41 µM and 3.42 µM | Plasma concentration 0.5 h [6, 20]: 1650 nmol/L and 1900 nmol/L and 1850 nmol/L | Plasma concentration 1 h [6, 20]: 655 nmol/L and 1140 nmol/L and 855 nmol/L | Plasma concentration 2 h [6, 20]: 328 nmol/L and 402 nmol/L and 307 nmol/L | Plasma concentration 4 h [6, 20]: 110 nmol/L and 144 nmol/L and 117 nmol/L | Vss [6, 20]: 0.6 L/kg and 0.4 L/kg and 0.5 L/kg | t1/2 [6, 20]: 6.9 h and 6.7 h and 6.6 h | AUC0-inf/Dose ([6]; iv bolus, mice, Mean): 8900 h nM/(nmol kg-1) | AUC0-t/Dose ([6]; iv bolus, mice, Mean): 8580 h nM/(nmol kg-1) | CL ([6]; iv bolus, mice, Mean): 1.9 mL/min/kg | CL PL QH ([6]; iv bolus, mice, Mean): 2.1% | Cmax/Dose ([6]; iv bolus, mice, Mean): 6710 nM/(nmol kg-1) | MRT ([6]; iv bolus, mice, Mean): 4.2 h | Plasma concentration 0.1 h ([6]; iv bolus, mice, Mean): 3.09 µM | Plasma concentration 0.5 h ([6]; iv bolus, mice, Mean): 1800 nmol/L | Plasma concentration 1 h ([6]; iv bolus, mice, Mean): 883 nmol/L | Plasma concentration 2 h ([6]; iv bolus, mice, Mean): 346 nmol/L | Plasma concentration 4 h ([6]; iv bolus, mice, Mean): 124 nmol/L | Vss ([6]; iv bolus, mice, Mean): 0.5 L/kg | t1/2 ([6]; iv bolus, mice, Mean): 6.7 h | Plasma concentration 6 h [6, 21]: 95.5 nmol/L | Plasma concentration 24 h [6, 21]: 15.4 nmol/L | VSS ([6]; mice, 1 mg kg-1 iv bolus): 0.48 L/kg | Cl ([6]; plasma clearance, mice, 1 mg kg-1 iv bolus): 1.90 mL/min/kg | T1/2 ([6]; plasma, mice, 1 mg kg-1 iv bolus): 6.74 h | MIC [7, 22]: > 50 µM | MIC [7, 23]: > 50 µM and > 109 µg/mL | Microsomal Stability Rat QH ([8]; Rat): 43% and 48.3% and 40.9% | Microsomal Stability Rat ([8]; clearance in microsomes): 40 %Qh

COC(c1ccccc1)C1NC(=O)C(C)NC(=O)C(CC(C)CO)N(C)C(=O)C(Cc2cn(C)c3ccccc23)NC(=O)C(Cc2cn(CCCCCn3cc(CC4NC(=O)C(CC(C)C)N(C)C(=O)C(C(C)C)NC(=O)C(C(OC)c5ccccc5)NC(=O)C(C)NC(=O)C(CC(C)CO)N(C)C(=O)C(Cc5cn(C)c6ccccc56)NC4=O)nn3)nn2)NC(=O)C(CC(C)C)N(C)C(=O)C(C(C)C)NC1=O (stereo not shown) [Compound 12]
colony growth after replating (MBC assay) [1]: growth of colonies could be observed across all tested concentrations | MBC [1, 9]: > 99 µg/mL and > 50 µM | MBC ([1]; read-out: MBC Msm #607): > 50 µM and > 99 µg/mL | MIC [2, 24]: >50 µM | MIC [2, 11]: > 50 µM | MIC [2, 12]: > 99 µg/mL | MIC [3, 13]: < 0.1 µM and < 0.2 µg/mL | MIC [3, 14]: < 0.1 µM and < 0.19 µg/mL | MIC [3, 25]: <0.1 µM | MIC Mtb # 8673 [3, 25]: <0.19 µg/mL | MIC [4, 24]: >50 µM | MIC [4, 16]: > 50 µM | MIC [4, 17]: > 99 µg/mL | Emax [5]: 0.28 | Cl [6, 26]: 4.14 mL/min/kg | T1/2 [6, 26]: 1.37 h | VSS [6, 26]: 0.42 L/kg | AUC ([6]; mouse, in vivo, iv): 3870 h nM/(nmol kg-1) | Cmax ([6]; mouse, in vivo, iv): 3270 nM/(nmol kg-1) | Plasma concentration 24 h ([6]; mouse, in vivo, iv): BLOQ | MIC [7, 22]: > 50 µM | MIC [7, 23]: > 50 µM and > 99 µg/mL | Microsomal Stability Rat ([8]; rat, microsomes, pH 7.5): < 23 %Qh | Microsomal Stability Rat QH ([8]; rat, microsomes, pH 7.5): <23.1%
